In patent US20120264735A1 (priority 2009, published 2012) one finds IC50 data, which are given here for 13 compounds.

As a reminder, the IC50 is the midpoint of a concentration-inhibition curve.

The target of the assay is T1, c-Met kinase (recombinant c-Met) (Homo sapiens, UniProt P08581).
T1 construct: 0.27 nM recombinant c-Met
T1 sequence (P08581 25-1390): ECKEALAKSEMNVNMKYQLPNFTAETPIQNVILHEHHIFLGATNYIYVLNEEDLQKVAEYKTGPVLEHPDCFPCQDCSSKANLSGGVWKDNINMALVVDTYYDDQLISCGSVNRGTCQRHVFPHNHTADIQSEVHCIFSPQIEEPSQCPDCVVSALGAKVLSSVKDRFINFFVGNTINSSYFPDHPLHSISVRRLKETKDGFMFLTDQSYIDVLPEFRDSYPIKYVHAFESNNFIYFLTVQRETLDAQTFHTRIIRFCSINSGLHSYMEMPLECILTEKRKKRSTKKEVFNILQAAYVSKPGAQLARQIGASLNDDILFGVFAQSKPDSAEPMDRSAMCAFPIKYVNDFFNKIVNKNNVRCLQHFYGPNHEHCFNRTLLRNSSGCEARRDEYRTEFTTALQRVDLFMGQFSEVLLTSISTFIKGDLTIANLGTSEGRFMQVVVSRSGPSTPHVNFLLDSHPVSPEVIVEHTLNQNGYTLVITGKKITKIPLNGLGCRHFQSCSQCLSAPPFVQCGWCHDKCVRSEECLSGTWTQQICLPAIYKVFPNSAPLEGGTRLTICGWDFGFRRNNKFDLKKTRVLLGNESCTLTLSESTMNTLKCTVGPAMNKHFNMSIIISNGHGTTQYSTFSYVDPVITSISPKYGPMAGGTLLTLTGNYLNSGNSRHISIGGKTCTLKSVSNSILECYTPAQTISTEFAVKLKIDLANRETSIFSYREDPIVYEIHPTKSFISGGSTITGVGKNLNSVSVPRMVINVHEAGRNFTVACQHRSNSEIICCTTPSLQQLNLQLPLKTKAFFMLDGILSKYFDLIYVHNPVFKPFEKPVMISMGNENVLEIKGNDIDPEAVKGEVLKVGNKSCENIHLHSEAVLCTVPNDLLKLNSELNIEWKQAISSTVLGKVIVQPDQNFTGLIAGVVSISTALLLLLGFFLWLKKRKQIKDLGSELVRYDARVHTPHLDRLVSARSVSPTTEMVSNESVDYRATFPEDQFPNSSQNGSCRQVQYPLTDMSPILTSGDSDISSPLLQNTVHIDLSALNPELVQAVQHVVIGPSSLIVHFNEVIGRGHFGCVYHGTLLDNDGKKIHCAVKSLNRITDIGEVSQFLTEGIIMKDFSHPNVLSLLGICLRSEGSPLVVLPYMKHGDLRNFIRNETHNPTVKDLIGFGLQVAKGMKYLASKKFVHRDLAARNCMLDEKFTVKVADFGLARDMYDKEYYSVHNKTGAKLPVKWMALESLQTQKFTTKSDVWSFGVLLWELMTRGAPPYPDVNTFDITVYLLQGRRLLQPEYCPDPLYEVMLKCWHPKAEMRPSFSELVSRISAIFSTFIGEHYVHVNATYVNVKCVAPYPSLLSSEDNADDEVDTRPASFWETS
Description: In vitro kinase assay I (homogeneous time-resolved fluorescence tyrosine kinase assay). It is filed as biochemical. A digest of the protocol: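 Biotinylated peptide (0.5 μM) phosphorylated by 0.2 nM recombinant c-Met with 50 μM MgATP, 60 min at room temperature, pH 7.4, 5% DMSO. EDTA stop; HTRF read with Eu-anti-phosphotyrosine antibody and streptavidin-APC. IC50 from 4-parameter logistic fit.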
Consider `O=C(Nc1cccc(Cc2nn(-c3cc(F)c(F)c(F)c3)ccc2=O)c1)OCCN1CCC(C(=O)O)CC1` [Example 512, 1-(2-{[(3-{[4-oxo-1-(3,4,5-trifluorophenyl)-1,4-dihydropyridazin-3-yl]methyl}phenyl)carbamoyl]oxy}ethyl)piperidine-4-carboxylic acid], for which the half-inhibitory concentration (IC50) is under 100 nM.

`Cn1cc(-n2ccc(=O)c(Cc3cccc(NC(=O)OC[C@H]4CCCN4)c3)n2)cn1` [Example 615, (2R)-pyrrolidin-2-ylmethyl (3-{[1-(1-methyl-1H-pyrazol-4-yl)-4-oxo-1,4-dihydropyridazin-3-yl]methyl}phenyl)carbamate]: the IC50 was 100 to 1000 nM.

With `Cn1cc(-n2ccc(=O)c(Cc3cccc(-c4ncc(CO)s4)c3)n2)cn1` [Example 676, 3-{3-[5-(hydroxymethyl)-1,3-thiazol-2-yl]benzyl}-1-(1-methyl-1H-pyrazol-4-yl)pyridazin-4(1H)-one], the IC50 lay within 100 to 1000 nM.

As for `O=C(Nc1cccc(Cc2nn(-c3cc(F)cc(F)c3)ccc2=O)c1)OCC1CCCOC1` (racemic) [Example 607, rac-tetrahydro-2H-pyran-3-ylmethyl (3-{[1-(3,5-difluorophenyl)-4-oxo-1,4-dihydropyridazin-3-yl]methyl}phenyl)carbamate], the IC50 is under 100 nM.

On to `CC(C)c1cnc(-c2cccc(Cc3nn(-c4cnn(C)c4)ccc3=O)c2)nc1` [Example 436, 1-(1-Methyl-1H-pyrazol-4-yl)-3-{3-[5-(propan-2-yl)pyrimidin-2-yl]benzyl}pyridazin-4(1H)-one], for which the IC50 is under 100 nM.

As to `Cn1cc(-n2ccc(=O)c(Cc3cccc(-c4ncc(NC(=O)CN5CCCC5=O)cn4)c3)n2)cn1` [Example 463, N-[2-(3-{[1-(1-methyl-1H-pyrazol-4-yl)-4-oxo-1,4-dihydro-pyridazin-3-yl]methyl}phenyl)pyrimidin-5-yl]-2-(2-oxopyrrolidin-1-yl)acetamide], the IC50 was under 100 nM.

Consider `CC(C)COC(=O)Nc1cccc(Cc2nn(-c3cnn(CC(C)C)c3)ccc2=O)c1` [Example 94, 2-methylpropyl [3-({1-[1-(2-methylpropyl)-1H-pyrazol-4-yl]-4-oxo-1,4-dihydropyridazin-3-yl}methyl)phenyl]carbamate], for which the IC50 was in the range of 100 to 1000 nM.

With `CCn1cc(-n2ccc(=O)c(Cc3cccc(-c4ncn(CC)n4)c3)n2)cn1` [Example 86, 1-(1-ethyl-1H-pyrazol-4-yl)-3-[3-(1-ethyl-1H-1,2,4-triazol-3-yl)benzyl]pyridazin-4(1H)-one], the IC50 is under 100 nM.

`CC(C)COC(=O)Nc1cccc(Cc2nn(-c3cnn(CC(=O)O)c3)ccc2=O)c1` [Example 181, {4-[3-(3-{[(2-methylpropoxy)carbonyl]amino}benzyl)-4-oxopyridazin-1(4H)-yl]-1H-pyrazol-1-yl}acetic acid]: the IC50 is under 100 nM.

For the compound `CC(C)COC(=O)Nc1cccc(Cc2nn(-c3cnn(CCO)c3)ccc2=O)c1` [Example 645, 2-methylpropyl [3-({1-[1-(2-hydroxyethyl)-1H-pyrazol-4-yl]-4-oxo-1,4-dihydropyridazin-3-yl}methyl)phenyl] carbamate], the IC50 was under 100 nM.

For `CCn1cc(-n2ccc(=O)c(C(C)c3cccc(-c4ncc(OCC5CCCO5)cn4)c3)n2)cn1` (single isomer, unassigned) [Example 298, 1-(1-ethyl-1H-pyrazol-4-yl)-3-[(1R or S)-1-{3-[5-(tetrahydrofuran-2-ylmethoxy)pyrimidin-2-yl]phenyl}ethyl]pyridazin-4(1H)-one], the IC50 is under 100 nM.

For `Cn1cc(-n2ccc(=O)c(Cc3cccc(-c4ncc(OC5CCOCC5)cn4)c3)n2)cn1` [Example 277, 1-(1-methyl-1H-pyrazol-4-yl)-3-{3-[5-(tetrahydro-2H-pyran-4-yloxy)pyrimidin-2-yl]benzyl}pyridazin-4(1H)-one], the 50% inhibitory concentration (IC50) is under 100 nM.

For the compound `Cn1cc(-n2ccc(=O)c(Cc3cccc(-c4ncc(OCC(C)(C)O)cn4)c3)n2)cn1` [Example 358, 3-{3-[5-(2-Hydroxy-2-methylpropoxy)pyrimidin-2-yl]benzyl}-1-(1-methyl-1H-pyrazol-4-yl)pyridazin-4(1H)-one], the IC50 was under 100 nM.
